Source: US9415055B2, “Cyclic amines” (H. Lundbeck A/S, priority 2012, dated 2016)

These molecules were tested against P2X7 receptor (Homo sapiens (Human), UniProt Q99572) (assay: P2X7 FLIPR assay: antagonism of BzATP response in 293 HEK cells stably expressing P2X7 receptor). Settings: FLIPR fluorescence (Fluo-4), agonist BzATP, 293 HEK cells stably transfected with P2X7 receptor.
Type: cell-based
In short: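 Antagonist IC50 derived from FLIPR Tetra Fluo-4 calcium signal evoked by BzATP. Compound pre-incubation was 30 min at room temperature on P2X7-expressing HEK293 cells, seeded 24 h before in low-serum medium and dye-loaded 30 min at 37 °C then 30 min at RT.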

Chain of P2X7 receptor (Q99572 whole entry): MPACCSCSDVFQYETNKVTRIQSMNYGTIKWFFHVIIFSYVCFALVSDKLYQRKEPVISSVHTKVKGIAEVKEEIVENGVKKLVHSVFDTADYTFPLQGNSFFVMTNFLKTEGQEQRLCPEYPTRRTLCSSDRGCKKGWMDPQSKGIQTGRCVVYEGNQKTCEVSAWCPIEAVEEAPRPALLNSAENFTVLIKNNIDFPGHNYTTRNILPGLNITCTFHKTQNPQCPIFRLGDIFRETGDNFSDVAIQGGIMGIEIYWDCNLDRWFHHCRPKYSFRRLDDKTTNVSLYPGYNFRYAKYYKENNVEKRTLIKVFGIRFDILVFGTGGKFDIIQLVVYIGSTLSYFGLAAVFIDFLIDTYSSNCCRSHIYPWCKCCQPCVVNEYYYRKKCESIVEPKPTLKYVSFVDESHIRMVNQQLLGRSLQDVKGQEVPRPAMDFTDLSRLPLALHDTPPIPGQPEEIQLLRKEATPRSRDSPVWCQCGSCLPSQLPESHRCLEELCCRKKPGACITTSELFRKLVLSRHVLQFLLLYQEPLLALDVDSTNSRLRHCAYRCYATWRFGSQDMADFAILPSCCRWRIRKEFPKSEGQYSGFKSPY

| Compound | IC50 [nM] |
| --- | --- |
| Cc1ncc(C(CNC(=O)c2c(Cl)cccc2Cl)N2CCC(F)(F)CC2)cn1 (single isomer, unassigned; (-)) [(−)2,6-dichloro-N-[2-(4,4-difluoro-1-piperidyl)-2-(2-methylp] [(−)2,6-dichloro-N-(2-(4,4-difluoropiperidin-1-yl)-2-(2-methylpyrimidin-5-yl)ethyl)benzamide] | 22 |
| Cc1ncc(C(CNC(=O)c2cccc(Cl)c2Cl)N2CCC(Cl)CC2)cn1 (stereo not shown) [2,3-dichloro-N-(2-(4-chloropiperidin-1-yl)-2-(2-methylpyrimidin-5-yl)ethyl)benzamide] | 5.7 |
| Cc1ccccc1C(=O)NC[C@H](c1ccc(Cl)cc1)N1CCOCC1 [N-[(S)-2-(4-Chloro-phenyl)-2-morpholin-4-yl-ethyl]-2-methyl-benzamide] | 9.3 |
| Cc1ccc(Cl)c(C(=O)NCC(c2ccncc2)N2CCOCC2)c1 (stereo not shown) [2-Chloro-5-methyl-N-(2-morpholin-4-yl-2-pyridin-4-yl-ethyl)-benzamide] | 2700 |
| O=C(NCC(c1ccncc1)N1CCOCC1)c1cccc(Cl)c1Cl (stereo not shown) [2,3-Dichloro-N-(2-morpholin-4-yl-2-pyridin-4-yl-ethyl)-benzamide] | 750 |
| Cc1ccc(C(CNC(=O)c2cccc(Cl)c2Cl)N2CCOCC2)cn1 (single isomer, unassigned; (+)) [(+)2,3-Dichloro-N-[2-(6-methyl-3-pyridyl)-2-morpholino-ethyl]benzamide] | 44 |
| Cc1ncc(C(CNC(=O)c2ccccc2Cl)N2CCCC(F)(F)C2)cn1 (single isomer, unassigned; (-)) [(−)2-chloro-N-[2-(3,3-difluoro-1-piperidyl)-2-(2-methylpyrim] [(−)2-chloro-N-(2-(3,3-difluoropiperidin-1-yl)-2-(2-methylpyrimidin-5-yl)ethyl)benzamide] | 28 |
| Cc1ncc(C(CNC(=O)c2cccc(OC(F)F)c2Cl)N2CCC(F)(F)CC2)cn1 (single isomer, unassigned; (-)) [(−)2-chloro-3-(difluoromethoxy)-N-[2-(4,4-difluoro-1-piperid] [(−)2-chloro-3-(difluoromethoxy)-N-(2-(4,4-difluoropiperidin-1-yl)-2-(2-methylpyrimidin-5-yl)ethyl)benzamide] | 37 |
| O=C(NCC(c1ccc(Cl)cc1)N1CCC(F)(F)CC1)c1cccc(Cl)c1Cl (stereo not shown) [N-[2-(4-Chloro-phenyl)-2-(4,4-difluoro-piperidin-1-yl)-ethyl]-2,3-dichloro-benzamide] | 46 |
| O=C(NCC(c1cnc(C(F)(F)F)nc1)N1CCC(F)(F)CC1)c1cccc(Cl)c1Cl (stereo not shown) [2,3-dichloro-N-(2-(4,4-difluoropiperidin-1-yl)-2-(2-(trifluoromethyl)pyrimidin-5-yl)ethyl)benzamide] | 0.65 |
| Cc1ccc(C(CNC(=O)c2c(F)cccc2Cl)N2CCC(F)(F)CC2)cn1 (single isomer, unassigned; (+)) [(+)2-chloro-N-[2-(4,4-difluoro-1-piperidyl)-2-(6-methyl-3-py] [(+)2-chloro-N-(2-(4,4-difluoropiperidin-1-yl)-2-(6-methylpyridin-3-yl)ethyl)-6-fluorobenzamide] | 110 |
| O=C(NCC(c1cccnc1)N1CCOCC1)c1cccc(Cl)c1Cl (stereo not shown) [2,3-Dichloro-N-(2-morpholin-4-yl-2-pyridin-3-yl-ethyl)-benzamide] | 1100 |
| Cc1ncc(C(CNC(=O)c2ccccc2Cl)N2CCC(F)CC2)cn1 (single isomer, unassigned; (+)) [(+)2-chloro-N-[2-(4-fluoro-1-piperidyl)-2-(2-methylpyrimidin] [(+)2-chloro-N-(2-(4-fluoropiperidin-1-yl)-2-(2-methylpyrimidin-5-yl)ethyl)benzamide] | 50 |
| Cc1ncc(C(CNC(=O)c2c(Cl)ccc(F)c2Cl)N2CCC(F)(F)CC2)cn1 (single isomer, unassigned; (-)) [(−)2,6-dichloro-N-[2-(4,4-difluoro-1-piperidyl)-2-(2-methylp] [(−)2,6-dichloro-5-fluoro-N-(2-(4,4-difluoropiperidin-1-yl)-2-(2-methylpyrimidin-5-yl)ethyl)benzamide] | 37 |
| O=C(NCC(c1ccc(C(F)(F)F)nc1)N1CCC(F)(F)CC1)c1cccc(F)c1Cl (single isomer, unassigned; (+)) [(+)2-chloro-N-[2-(4,4-difluoro-1-piperidyl)-2-[6-(trifluorom] [(+)2-chloro-N-(2-(4,4-difluoropiperidin-1-yl)-2-(2-(trifluoromethyl)pyridin-5-yl)ethyl)-3-fluorobenzamide] | 1.7 |
| Cc1ncc(C(CNC(=O)c2ccccc2Cl)N2CCOCC2)cn1 (single isomer, unassigned; (-)) [(−)2-chloro-N-[2-(2-methylpyrimidin-5-yl)-2-morpholino-ethyl] [(−)2-chloro-N-(2-(2-methylpyrimidin-5-yl)-2-morpholinoethyl)benzamide] | 110 |

| Compound | IC50 [nM] |
| --- | --- |
| CCc1ncc(C(CNC(=O)c2cccc(Cl)c2Cl)N2CCC(F)(F)CC2)cn1 (single isomer, unassigned; (-)) [(−)2,3-dichloro-N-[2-(4,4-difluoro-1-piperidyl)-2-(2-ethylpy] [(−)2,3-dichloro-N-(2-(4,4-difluoropiperidin-1-yl)-2-(2-ethylpyrimidin-5-yl)ethyl)benzamide] | 4.9 |
| Cc1ncc(C(CNC(=O)c2cc(F)cc(Cl)c2Cl)N2CCC(F)(F)CC2)cn1 (single isomer, unassigned; (-)) [(−)2,3-dichloro-N-[2-(4,4-difluoro-1-piperidyl)-2-(2-methylp] [(−)2,3-dichloro-5-fluoro-N-(2-(4,4-difluoropiperidin-1-yl)-2-(2-methylpyrimidin-5-yl)ethyl)benzamide] | 14 |
| Cc1cccc(C(=O)NCC(c2ccc(Cl)cc2)N2CCC(F)(F)CC2)c1C (stereo not shown) [N-[2-(4-Chloro-phenyl)-2-(4,4-difluoro-piperidin-1-yl)-ethyl]-2,3-dimethyl-benzamide] | 3.6 |
| CCc1ncc(C(CNC(=O)c2c(F)cccc2Cl)N2CCC(F)(F)CC2)cn1 (single isomer, unassigned; (+)) [(+)2-chloro-N-[2-(4,4-difluoro-1-piperidyl)-2-(2-ethylpyrimi] [(+)2-chloro-6-fluoro-N-(2-(4,4-difluoropiperidin-1-yl)-2-(2-ethylpyrimidin-5-yl)ethyl)benzamide] | 14 |
| COc1ccc(C(CNC(=O)c2cccc(Cl)c2Cl)N2CCC(F)(F)CC2)cc1 (stereo not shown) [2,3-dichloro-N-[2-(4,4-difluoro-1-piperidyl)-2-(4-methoxyphenyl)ethyl]benzamide] | 0.6 |
| Cn1cc(C(CNC(=O)c2c(Cl)cccc2Cl)N2CCC(F)(F)CC2)cn1 (single isomer, unassigned; (+)) [(+)2,6-dichloro-N-[2-(4,4-difluoro-1-piperidyl)-2-(1-methylp] [(+)2,6-dichloro-N-(2-(4,4-difluoropiperidin-1-yl)-2-(1-methyl-1H-pyrazol-4-yl)ethyl)benzamide] | 56 |
| Cn1cc(C(CNC(=O)c2ccccc2Cl)N2CCC(F)(F)CC2)cn1 (single isomer, unassigned; (+)) [(+)2-chloro-N-[2-(4,4-difluoro-1-piperidyl)-2-(1-methylpyraz] [(+)2-chloro-N-(2-(4,4-difluoropiperidin-1-yl)-2-(1-methyl-1H-pyrazol-4-yl)ethyl)benzamide] | 180 |
| O=C(NCC(c1cnc(C(F)(F)F)nc1)N1CCC(F)(F)CC1)c1ccc(Cl)cc1Cl (single isomer, unassigned; (-)) [(−)2,4-dichloro-N-[2-(4,4-difluoro-1-piperidyl)-2-[2-(triflu] [(−)2,4-dichloro-N-(2-(4,4-difluoropiperidin-1-yl)-2-(2-(trifluoromethyl)pyrimidin-5-yl)ethyl)benzamide] | 6.4 |
| COc1cccc(C(=O)NCC(c2ccc(Cl)cc2)N2CCOCC2)c1Cl (single isomer, unassigned; (-)) [(−)2-chloro-N-[2-(4-chlorophenyl)-2-morpholino-ethyl]-3-meth] [(−)2-chloro-N-(2-(4-chlorophenyl)-2-morpholinoethyl)-3-methoxybenzamide] | 1.5 |
| Cc1ncc(C(CNC(=O)c2c(F)cccc2Cl)N2CCCC(F)(F)C2)cn1 (single isomer, unassigned; (-)) [(−)2-chloro-N-[2-(3,3-difluoro-1-piperidyl)-2-(2-methylpyrim] [(−)2-chloro-6-fluoro-N-(2-(3,3-difluoropiperidin-1-yl)-2-(2-methylpyrimidin-5-yl)ethyl)benzamide] | 280 |
| Cc1ncc(C(CNC(=O)c2cccc(Cl)c2Cl)N2CC3CCC2C3)cn1 (stereo not shown) [N-(2-(2-azabicyclo[2.2.1]heptan-2-yl)-2-(2-methylpyrimidin-5-yl)ethyl)-2,3-dichlorobenzamide] | 3200 |
| COc1ccc(C(=O)NCC(c2cnc(C(F)(F)F)nc2)N2CCC(F)(F)CC2)c(Cl)c1OC (single isomer, unassigned; (-)) [(−)2-chloro-N-[2-(4,4-difluoro-1-piperidyl)-2-[2-(trifluorom] [(−)2-chloro-3,4-dimethoxy-N-(2-(4,4-difluoropiperidin-1-yl)-2-(2-(trifluoromethyl)pyrimidin-5-yl)ethyl)benzamide] | 7.8 |
| Cn1cc(C(CNC(=O)c2ccccc2Cl)N2CCC(F)(F)CC2)cn1 (single isomer, unassigned; (-)) [(−)2-chloro-N-[2-(4,4-difluoro-1-piperidyl)-2-(1-methylpyraz] [(−)2-chloro-N-(2-(4,4-difluoropiperidin-1-yl)-2-(1-methyl-1H-pyrazol-4-yl)ethyl)benzamide] | 230 |
| Cc1ccc(C(CNC(=O)c2cc(C)ccc2Cl)N2CCOCC2)cc1 (stereo not shown) [2-Chloro-5-methyl-N-(2-morpholin-4-yl-2-p-tolyl-ethyl)-benzamide] | 38 |
| COc1ccccc1C(=O)NCC(c1ccc(C(F)(F)F)nc1)N1CCOCC1 (single isomer, unassigned; (-)) [(−)2-methoxy-N-[2-morpholino-2-[6-(trifluoromethyl)-3-pyridy] [(−)2-Methoxy-N-[2-morpholin-4-yl-2-(6-trifluoromethyl-pyridin-3-yl)-ethyl]-benzamide] | 21 |
